Assay results: US20260185169A1, “MOLECULAR SIGNATURES TO PREDICT LONG-TERM LIVER FIBROSIS PROGRESSION” (THE BOARD OF REGENTS OF THE UNIVERSITY OF TEXAS SYSTEM, priority 2022, published 2026)

Tested on: FPS and molecular pathways
Experiment: Modulation of FPS and molecular pathways in hepatic transcriptome (RNA-Seq, CES/GSEI) in CENTAUR trial biopsies
Assay type: in vivo, human
Description: Archived formalin-fixed liver tissues from index biopsy were used for histological assessment in all patients (FIG. 1 and Table 1A-11) to confirm no to minimal fibrosis (METAVIR fibrosis stage F0 or F1). The PLS validation set 1 (and FPS derivation set 1) is a case-control series of 43 chronic hepatitis C patients from a prior cohort study consecutively diagnosed and followed at Johns Hopkins and Massachusetts General Hospital between 1998 and 2010. Twenty-five patients were co-infected with HIV and on anti-retroviral therapies. The patients were regularly followed up with ultrasound elastography at median interval of 1.1 (IQR: 0.6-2.0) years. Liver stiffness measurement >7.0 and >9.5 kPa were regarded as indication of F2 and F3 fibrosis, respectively. The PLS validation set 2 (and FPS derivation set 2) is a case-control series of 38 patients who consecutively underwent liver transplantation for HCV-related cirrhosis and protocol liver biopsies at year 1, 2, and 5 after transplantation (and additional biopsies as needed to evaluate graft rejection, which were excluded) at Baylor University between 2002 and 2007. Median number of biopsies was 8 (IQR: 6-9) per patient with median interval between serial biopsies of 8.6 (IQR: 0.3-12.6) months. […] The FPS derivation set 3 is a cross-sectional series of 31 NAFLD patients who underwent diagnostic liver biopsy at Hiroshima University between 2003 and 2015. The FPS derivation set 4 is a cross-sectional series of 309 NAFLD patients who underwent diagnostic liver biopsy (F0 or F1 fibrosis) at Massachusetts General Hospital between 2009 and 2016. […] The cases were defined as patients who had F-stage increase of one stage or more in the follow-up biopsy. The FPS validation set 2 includes 78 patients with fibrotic liver diseases from various etiologies, for which de-identified fresh liver tissues were available from standard-care hepatic resection for organotypic ex vivo tissue culture at University of Texas Southwestern and Mount Sinai. The FPS validation set 3 consists of NASH patients with F1-F3 fibrosis who underwent liver biopsy before and after 1-year treatment with cenicriviroc (n=9) or placebo (n=10) in the phase Ilb CENTAUR trial (NCT02217475). Decrease of one or more fibrosis stage was regarded as anti-fibrotic response. The serum surrogate FPS was assessed in archived de-identified serum samples from 79 patients with chronic liver diseases. The FPSec validation set is a cohort of 122 patients with compensated (Child-Pugh class A) cirrhosis patients with mixed etiologies enrolled at University of Michigan between 2004 and 2006 as reported in our previous study. Hepatic decompensation was defined as newly developed massive ascites, hepatic encephalopathy, bleeding from gastroesophageal varices, or liver transplantation. The study was approved by institutional review board at respective institutions with written informed consent or exemption for use of archived de-identified samples (protocol numbers: STU062018-058, STU072018-071, 2010P000220/PHS, HS13-00159).
Total RNA was isolated from fixed tissue sections by using High Pure RNA Paraffin kit (Roche), and assessed for quality by qRT-PCR of RPL13A. Total RNA from the PCLS tissues was isolated using RNeasy kit (Qiagen). RNA samples (100-200 ng) were subjected to the PLS/FPS assay implemented in the nCounter platform (NanoString), and transcriptome profiling of the CENTAUR trial samples was performed by RNA-Seq (TrueSeq RNA Access, Illumina). Expression of BCL2, COL1A1, and ACTA2 genes was measured by qRT-PCR (Table 3). Serum protein profiling was performed by using xMAP assay (Luminex). […]

[1] = Fibrosis improved, NASH patients, Hallmark set, Cell cycle, DNA damage, response
[2] = Fibrosis improved, NASH patients, Hallmark set, Cellular signaling
[3] = Fibrosis improved, NASH patients, Hallmark set, Inflammatory response, immunity
[4] = Fibrosis improved, NASH patients, Hallmark set, Metabolism, biosynthesis
[5] = Fibrosis improved, NASH patients, Hallmark set, Pathogenic response
[6] = Fibrosis improved, NASH patients, Hallmark set, Sex hormone signaling
[7] = Fibrosis improved, NASH patients, Hallmark set, Stress response
[8] = Fibrosis improved, NASH patients, Immune cell signature (GSE65136)
[9] = Fibrosis improved, NASH patients, Nuclear receptor signaling (curated pathway members)
[10] = Fibrosis improved, NASH patients, PPAR agonists on mouse primary hepatocytes (GSE27948)
[11] = Fibrosis not improved, NASH patients, Hallmark set, Cell cycle, DNA damage, response

CCCCOCCOc1ccc(-c2ccc3c(c2)/C=C(/C(=O)Nc2ccc([S@@+]([O-])Cc4cncn4CCC)cc2)CCCN3CC(C)C)cc1 [Cenicriviroc]
modulation of TGF-β and PDGFRB pathways (1-year cenicriviroc treatment): unchanged
proportion of patients with substantial CES reduction (FPS response) (CENTAUR trial, 1-year treatment, paired pre/post biopsies): 22%
NES, DNA repair gene set [1]: 1.44
NES, G2M checkpoint gene set [1]: −1.33
NES, Mitotic spindle gene set [1]: −1.61
NES, Apoptosis gene set (Fibrosis improved, NASH patients, Hallmark set, Cell death): 1.32
NES, E2F targets gene set [2]: −1.36
NES, Hedgehog signaling gene set [2]: −0.65
NES, KRAS signaling gene set [2]: 1.31
NES, Myc targets v1 gene set [2]: 1.56
NES, Myc targets v2 gene set [2]: 1.26
NES, Notch signaling gene set [2]: 1.00
NES, PI3K/AKT/mTOR signaling gene set [2]: 0.91
NES, TGFβ signaling gene set [2]: 0.81
NES, TNFα signaling via NF-κB gene set [2]: 0.96
NES, Wnt/β-catenin signaling gene set [2]: −1.07
NES, mTORC1 signaling gene set [2]: 1.71
NES, p53 pathway gene set [2]: 1.00
NES, Allograft rejection gene set [3]: 1.83
NES, IL2 STAT5 signaling gene set [3]: 0.89
NES, IL6 JAK STAT3 signaling gene set [3]: 0.95
NES, Inflammatory response gene set [3]: 1.38
NES, Interferon-α response gene set [3]: 2.12
NES, Interferon-γ response gene set [3]: 2.07
NES, Adipogenesis gene set [4]: 1.60
NES, Bile acid metabolism gene set [4]: 1.62
NES, Cholesterol homeostasis gene set [4]: 1.19
NES, Coagulation gene set [4]: 1.57
NES, Complement gene set [4]: 2.07
NES, Fatty acid metabolism gene set [4]: 2.22
NES, Glycolysis gene set [4]: 1.10
NES, Heme metabolism gene set [4]: −0.98
NES, Oxidative phosphorylation gene set [4]: 2.49
NES, Peroxisome gene set [4]: 1.49
NES, Protein secretion gene set [4]: 1.57
NES, Xenobiotic metabolism gene set [4]: 1.66
NES, Angiogenesis gene set [5]: 1.47
NES, Epithelial mesenchymal transition gene set [5]: 1.41
NES, Androgen response gene set [6]: 1.52
NES, Estrogen response early gene set [6]: −0.79
NES, Estrogen response late gene set [6]: 1.12
NES, Hypoxia gene set [7]: 0.97
NES, Myogenesis gene set [7]: −0.95
NES, Reactive oxygen species gene set [7]: 1.07
NES, UV response up gene set [7]: 1.12
NES, Unfolded protein response gene set [7]: 1.34
NES, B cell (naïve) gene set [8]: −0.52
NES, CD4 T cell (naïve) gene set [8]: −0.57
NES, CD8 T cell gene set [8]: 1.13
NES, DC (activate) gene set [8]: 1.35
NES, Gamma delta T cell gene set [8]: 1.09
NES, Macrophage (M1) gene set [8]: 1.42
NES, Macrophage (M2) gene set [8]: 2.66
NES, Mast cell (active) gene set [8]: 1.22
NES, Mast cell (rest) gene set [8]: −1.59
NES, Memory B cell gene set [8]: −0.72
NES, Memory T cell (rest) gene set [8]: 0.80
NES, Monocyte gene set [8]: 2.81
NES, NK cell (rest) gene set [8]: 1.12
NES, Neutrophil gene set [8]: 1.87
NES, Plasma cell gene set [8]: 0.98
NES, Regulatory T cell gene set [8]: −0.99
NES, T follicular helper cell gene set [8]: 1.22
NES, FXR pathway gene set [9]: −1.06
NES, PPAR signaling gene set (first listed) [9]: 1.81
NES, PPAR signaling gene set (second listed) [9]: 1.70
NES, PPARα pathway gene set (first listed) [9]: 1.55
NES, PPARα pathway gene set (second listed) [9]: 0.92
NES, RAR/RXR pathway gene set [9]: −1.50
NES, RXR/VDR pathway gene set [9]: −1.10
NES, GW7647 (PPARa agonist) gene set (Fibrosis improved, NASH patients, PPAR agonist on human primary hepatocytes (GSE53399)): 1.84
NES, GW501516 (PPARd agonist) gene set [10]: 1.16
NES, ROSIGLITAZONE (PPARg agonist) gene set [10]: 1.36
NES, WY14643 (PPARa agonist) gene set [10]: 1.56
NES, PDGFRB target gene signature (Fibrosis improved, NASH patients, iLINCS): −0.83
NES, DNA repair gene set [11]: 0.85
NES, G2M checkpoint gene set [11]: 2.00
